Experimental data: patent publication US20110020366A1, “USE OF BENZOPHENONE DERIVATIVE OR SALT THEREOF AND TNF ALPHA INHIBITOR IN COMBINATION AND PHARMACEUTICAL COMPOSITION CONTAINING THE DERIVATIVE OR SALT THEREOF AND THE INHIBITOR” (TOYAMA CHEMICAL CO., LTD., priority 2008, published 2011)

Tested on: Mouse Type II Collagen-Induced Arthritis
Experiment: Mouse type II collagen-induced arthritis, arthritis score / inhibition rate
Format: in vivo
Conditions: compound A 30 mg/kg orally once a day for 10 days; DBA/1 J mice; day following the final administration
Protocol: Eight-week-old male DBA/1 J mice (9 or 10 mice per group; Charles River Laboratories Japan) were used. A 2 mg/mL bovine type II collagen dissolved in a 0.1 mol/L acetic acid solution (Koken Co., Ltd.) was mixed with an equal volume of Freund's complete adjuvant (BD Diagnostic Systems) to prepare an emulsion. The emulsion (0.2 mL) was intradermally injected into the hip of each mouse. Twenty-one days after the primary immunization, the same treatment was carried out (secondary sensitization), so that type II collagen arthritis was induced.
Compound A was dissolved in a 2-fold molar amount of sodium hydroxide solution, and a 3-fold weight of polyvinylpyrrolidone was then added to the solution, followed by dilution with distilled water. The concentration of compound A in a compound A (30 mg/kg)-dosing solution was adjusted to be 3 mg/mL. The concentration of compound A in compound A (3 mg/kg)-dosing solution for combined administration was adjusted to be 0.3 mg/mL. Each dosing solution was orally administered to the mice.
The anti-TNFα antibody was dissolved in phosphate buffered saline. The concentration of the anti-TNFα antibody in the anti-TNFα antibody (250 μg/mouse)-dosing solution was adjusted to be 1.25 mg/mL. […]
The knuckle portion and the articulations of wrist and tarsus portions of the four paws of each mouse were evaluated using the following 4 scores. […]

For `O=C(O)CCc1cc(C(=O)c2ccc(OC3CCCC3)cc2O)ccc1OCc1ccc2c(O)noc2c1` [Compound A, 3-(5-(4-(cyclopentyloxy)-2-hydroxybenzoyl)-2-((3-hydroxy-1,2-benzisoxazol-6-yl)methoxy)phenyl)propionic acid], the “Arthritis inhibition rate (%)” value was 23%.
